{
  "source": "patent US20220211703A1",
  "about": "“METHOD FOR TREATING COUGH BY USING DIAMINOPYRIMIDINE COMPOUND” (BEIJING TIDE PHARMACEUTICAL CO., LTD., priority 2019, published 2022)",
  "key": {"[1]": {"system": "Dunkin-Hartley guinea pigs", "assay": "Effect on the guinea pig cough model (ATP or histamine plus citric acid induced cough)", "format": "in vivo", "conditions": "oral administration 30 minutes to 1 hour before inducing cough, 250 uM ATP or 0.6 mM histamine then 0.5 M citric acid nebulized, FIG. 1 to FIG. 3 (doses 5.1-92 mg/kg)", "protocol": "In this test, dextromethorphan (purchased from Shanghai Send Pharmaceutical Technology Co., Ltd.) was used as a positive control compound. A clinical control compound having the following structure was employed, and it was prepared according to the method described in WO 2008/040652 A1:\nTest animals were 300-350 g Dunkin-Hartley guinea pigs (purchased from Shanghai Jiagan Biotechnology Co., Ltd). After being purchased and adaptively fed for one week, the animals were randomly divided into groups based on body weight, each test group comprising 10-15 test animals The vehicle (a 0.5% CMCNa solution), the test compounds, the positive control compound (dextromethorphan) or the clinical control compound were orally administrated (compounds at test dosages were respectively added to a 0.5% CMCNa solution, uniformly dispersed through thorough ultrasonic treatment; the solution was vortex mixed again before administration to each animal, and the test dosage ranged from 1 mg/kg to 100 mg/kg). Administration was performed 30 minutes to 1 hour before inducing cough.\nMethod of inducing cough: test animals were put in a body pneumotachograph (Buxco) and allowed to stand for several minutes. […] Starting from the nebulization of citric acid, the number of coughs of the animals in 10 minutes were recorded by employing a small animal pulmonary function detector (Buxco)."}, "[2]": {"biological_target": "T1, P2X3 (Homo sapiens, UniProt P56373)", "T1 construct": "expressed in transfected cells; host or cells: 1321N1 cells, stably transfected", "T1 sequence (P56373 1-397)": "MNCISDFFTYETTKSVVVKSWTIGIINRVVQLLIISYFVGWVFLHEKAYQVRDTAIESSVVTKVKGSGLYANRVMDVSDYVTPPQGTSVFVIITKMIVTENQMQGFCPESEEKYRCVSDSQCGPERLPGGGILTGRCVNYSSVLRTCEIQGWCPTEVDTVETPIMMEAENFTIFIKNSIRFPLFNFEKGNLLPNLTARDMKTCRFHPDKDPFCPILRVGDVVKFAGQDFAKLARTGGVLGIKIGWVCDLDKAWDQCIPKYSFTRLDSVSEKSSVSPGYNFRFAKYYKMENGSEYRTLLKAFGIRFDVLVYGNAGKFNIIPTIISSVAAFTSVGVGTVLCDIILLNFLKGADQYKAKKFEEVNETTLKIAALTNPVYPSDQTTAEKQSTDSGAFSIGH", "assay": "Inhibition on the P2X3-mediated current in 1321N1 cell line stably transfected with P2X3 (whole-cell patch clamp)", "format": "cell-based", "conditions": "1321N1 P2X3 stable transfected cells, clamping potential -60 mV, 5 minutes pre-treatment, Hill equation fit; read-out: IC50, inhibition of P2X3-mediated current induced by 10 μM Na2ATP", "protocol": "Membrane current was recorded by employing HEKA EPC-10 patch clamp amplifier and PATCHMASTER acquisition system. 1321N1 P2X3 stable transfected cells were transferred to an about 1 ml bath embedded in an inverted microscope platform, and an extracellular fluid (2 mM CaCl2, 1 mM MgCl2, 5 mM KCl, 155 mM NaCl, 12 mM glucose and 10 mM HEPES (pH=7.4)) was perfused by using a gravitational perfusion system. The P2X3-mediated current of a single cell was recorded in a whole cell recording mode. After formation of a gigaseal and rapture of the membrane, clamping potential was set at −60 mV. 10 μM Na2ATP was perfused for 5 seconds, and the P2X3-mediated current induced at this point was taken as a control current. The cells were then treated with a solution of compound 66 at a specific concentration (prepared with the extracellular fluid) for 5 minutes. The solution of compound 66 at this concentration and 10 μM Na2ATP were co-applied to induce a cell current (see FIG. 4 for the effect of the compound on the current), and an inhibition rate relative to the control current was calculated according to the following formula:\n(§1) Inhibition Rate Relative to the Control Current=(1−I2/I1)*100%\n(§2) wherein I1 represents the control current, and I2 represents the current after application of compound 66. […]"}, "[3]": {"biological_target": "T2, P2X3 (Rattus norvegicus, UniProt P49654)", "T2 construct": "The primary cells of rat DRG were transferred; endogenous in cells; host or cells: primary rat dorsal root ganglion cells, cultured ex vivo", "T2 sequence (P49654 1-397)": "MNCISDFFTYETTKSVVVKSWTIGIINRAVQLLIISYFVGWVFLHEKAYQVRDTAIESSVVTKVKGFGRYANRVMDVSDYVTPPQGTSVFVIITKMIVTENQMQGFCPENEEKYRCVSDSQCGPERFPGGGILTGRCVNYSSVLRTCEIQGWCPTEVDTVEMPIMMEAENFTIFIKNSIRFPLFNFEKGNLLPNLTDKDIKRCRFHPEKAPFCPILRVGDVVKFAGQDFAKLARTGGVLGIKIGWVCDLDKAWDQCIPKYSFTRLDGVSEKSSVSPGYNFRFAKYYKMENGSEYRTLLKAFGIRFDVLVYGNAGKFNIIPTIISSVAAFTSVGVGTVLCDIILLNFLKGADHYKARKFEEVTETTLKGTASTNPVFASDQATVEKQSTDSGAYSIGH", "assay": "Inhibition on the P2X3-mediated current in ex vivo cultured rat dorsal root ganglion (whole-cell patch clamp)", "format": "cell-based", "conditions": "primary cells of rat DRG, clamping potential -60 mV, 5 minutes pre-treatment, Hill equation fit; read-out: IC50, inhibition of P2X3-mediated current induced by 30 μM a,b-Me ATP", "protocol": "Membrane current was recorded by employing HEKA EPC-10 patch clamp amplifier and PATCHMASTER acquisition system. The primary cells of rat DRG were transferred to an about 1 ml bath embedded in an inverted microscope platform, and an extracellular fluid (2 mM CaCl2, 1 mM MgCl2, […] KCl, 155 mM NaCl, 12 mM glucose and 10 mM HEPES (pH=7.4)) was perfused by using a gravitational perfusion system. The P2X3-mediated current of a single cell was recorded in a whole cell recording mode. After formation of a gigaseal and rapture of the membrane, clamping potential was set at −60 mV. 30 μM a,b-Me ATP (also known as “α,β-meATP”) was perfused for 5 seconds, and the P2X3-mediated current induced at this point was taken as a control current. The cells were then treated with a solution of compound 66 at a specific concentration (prepared with the extracellular fluid) for 5 minutes. The solution of compound 66 at this concentration and 30 μM a,b-Me ATP were co-applied to induce a cell current (see FIG. 6 for the effect of the compound on the current), and an inhibition rate relative to the control current was calculated according to the following formula:\nas §1, §2"}},
  "data": [
    {"compound": "CNc1cc(Oc2cnc(N)nc2N)c(C(C)C)cn1", "note": "[Compound 22]", "values": [
      {"measurement": "antitussive effect (number of coughs in 10 minutes)", "setting": "[1]", "value": "significant antitussive effect, which was better than that of the clinical control compound"}
    ]},
    {"compound": "C#Cc1cc(Oc2cnc(N)nc2N)c(C(C)C)cn1", "note": "[Compound 66]", "values": [
      {"measurement": "antitussive effect (number of coughs in 10 minutes)", "setting": "[1]", "value": "significant antitussive effect, which was better than that of the clinical control compound"},
      {"measurement": "IC50", "setting": "[2]", "value": 26.2, "unit": "nM"},
      {"measurement": "IC50", "setting": "[3]", "value": 28.3, "unit": "nM"}
    ]}
  ]
}
